Data taken from US7138361B2, “Herbicidal heterocycles” (E. I. du Pont de Nemours and Company, priority 2000, dated 2006).

Experiments:
Format in all cases: in vivo
[1] = test system: Nightshade; assay: Test C preemergence; details: scale 0 to 100, 0 no effect, 100 complete control
[2] = test system: Sunflower; assay: Test C preemergence; details: Rate 125 g/ha; scale 0 to 100, 0 no effect, 100 complete control
[3] = test system: Surinam grass (Brachiaria decumbens); assay: Test C preemergence; details: for Plant response rating, Surinam grass: scale 0 to 100, 0 no effect, 100 complete control; for Plant response rating (0 to 100), Surinam grass: preemergence, visual evaluation after 12 to 14 days
Summary of the method: (§1)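 Pre- and postemergence treatments used a non-phytotoxic solvent/surfactant formulation; post-treated plants measured 2 to 18 cm. Greenhouse hold 12–14 d; % control estimated visually relative to controls.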

[4] = test system: bermudagrass (Cynodon dactylon); assay: Test C preemergence; details: for Plant response rating, Bermudagrass: scale 0 to 100, 0 no effect, 100 complete control; for Plant response rating (0 to 100 where 0 is no effect and 100 is complete control), Bermudagrass: preemergence, visual evaluation after 12 to 14 days
Summary of the method: as §1

[5] = test system: cocklebur (Xanthium strumarium); assay: Test C preemergence; details: for Plant response rating, Cocklebur: scale 0 to 100, 0 no effect, 100 complete control; for Plant response rating (0 to 100), Cocklebur: preemergence, visual evaluation after 12 to 14 days
Summary of the method: as §1

[6] = test system: common ragweed (Ambrosia elatior); assay: Test C preemergence; details: for Plant response rating, Ragweed, Common: scale 0 to 100, 0 no effect, 100 complete control
Summary of the method: as §1

[7] = test system: corn (Zea mays); assay: Test C preemergence; details: for Plant response rating, Corn: scale 0 to 100, 0 no effect, 100 complete control; for Plant response rating (0 to 100), Corn: preemergence, visual evaluation after 12 to 14 days
Summary of the method: as §1

[8] = test system: crabgrass (Digitaria sanguinalis); assay: Test C preemergence; details: for Plant response rating, Crabgrass: scale 0 to 100, 0 no effect, 100 complete control; for Plant response rating (0 to 100), Crabgrass: preemergence, visual evaluation after 12 to 14 days
Summary of the method: as §1

[9] = test system: giant foxtail (Setaria faberii); assay: Test C preemergence; details: for Plant response rating, Foxtail, Giant: scale 0 to 100, 0 no effect, 100 complete control; for Plant response rating (0 to 100), Foxtail, Giant: preemergence, visual evaluation after 12 to 14 days
Summary of the method: as §1

[10] = test system: goosegrass (Eleusine indica); assay: Test C preemergence; details: for Plant response rating, Goosegrass: scale 0 to 100, 0 no effect, 100 complete control; for Plant response rating (0 to 100), Goosegrass: preemergence, visual evaluation after 12 to 14 days
Summary of the method: as §1

[11] = test system: johnsongrass (Sorghum halepense); assay: Test C preemergence; details: for Plant response rating, Johnsongrass: scale 0 to 100, 0 no effect, 100 complete control; for Plant response rating (0 to 100), Johnsongrass: preemergence, visual evaluation after 12 to 14 days
Summary of the method: as §1

[12] = test system: kochia (Kochia scoparia); assay: Test C preemergence; details: for Plant response rating, Kochia: scale 0 to 100, 0 no effect, 100 complete control; for Plant response rating (0 to 100), Kochia: preemergence, visual evaluation after 12 to 14 days
Summary of the method: as §1

[13] = test system: lambsquarters (Chenopodium album); assay: Test C preemergence; details: for Plant response rating, Lambsquarters: scale 0 to 100, 0 no effect, 100 complete control
Summary of the method: as §1

[14] = test system: morningglory (Ipomoea hederacea); assay: Test C preemergence; details: for Plant response rating, Morningglory: scale 0 to 100, 0 no effect, 100 complete control
Summary of the method: as §1

[15] = test system: pigweed (Amaranthus retroflexus); assay: Test C preemergence; details: for Plant response rating, Pigweed: scale 0 to 100, 0 no effect, 100 complete control
Summary of the method: as §1

[16] = test system: soybean (Glycine max); assay: Test C preemergence; details: for Plant response rating, Soybean: scale 0 to 100, 0 no effect, 100 complete control
Summary of the method: as §1

[17] = test system: velvetleaf (Abutilon theophrasti); assay: Test C preemergence; details: for Plant response rating, Velvetleaf: scale 0 to 100, 0 no effect, 100 complete control
Summary of the method: as §1

[18] = test system: woolly cupgrass (Eriochloa villosa); assay: Test C preemergence; details: for Plant response rating, Cupgrass, Woolly: scale 0 to 100, 0 no effect, 100 complete control; for Plant response rating (0 to 100), Cupgrass, Woolly: preemergence, visual evaluation after 12 to 14 days
Summary of the method: as §1

[19] = test system: yellow nutsedge (Cyperus esculentus); assay: Test C preemergence; details: for Plant response rating, Nutsedge: scale 0 to 100, 0 no effect, 100 complete control
Summary of the method: as §1

[20] = test system: barnyardgrass (Echinochloa crus-galli); assay: Test C flooded paddy test; details: for Barnyardgrass plant response rating: Flooded Paddy, scale 0 to 100, 0 no effect, 100 complete control; for Plant response rating, Barnyardgrass: flooded paddy test, scale 0 to 100 (0 no effect, 100 complete control)
Summary of the method: (§2)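 Visual ratings (0 = no effect, 100 = complete control) were made 12–14 days after treatment, relative to greenhouse controls. Plants in the flooded paddy test were rice, smallflower flatsedge, duck salad and barnyardgrass, treated at the 2-leaf stage.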

[21] = test system: duck salad (Heteranthera limosa); assay: Test C flooded paddy test; details: for Ducksalad plant response rating: Flooded Paddy, scale 0 to 100, 0 no effect, 100 complete control; for Plant response rating, Ducksalad: flooded paddy test, scale 0 to 100 (0 no effect, 100 complete control)
Summary of the method: as §2

[22] = test system: smallflower flatsedge (Cyperus difformis); assay: Test C flooded paddy test; details: for Flatsedge plant response rating: Flooded Paddy, scale 0 to 100, 0 no effect, 100 complete control; for Plant response rating, Flatsedge: flooded paddy test, scale 0 to 100 (0 no effect, 100 complete control)
Summary of the method: as §2

[23] = preemergence, Rate 500 g/ha, visual evaluation after 12 to 14 days

CC(C)(C)c1ccn(C2CCN(c3cccc(OC(F)F)c3)C2=O)n1 (centres unmarked) [Compound 76]
60: Plant response rating, Surinam grass ([3]; Rate 125 g/ha)
0: Plant response rating, Nightshade ([1]; Rate 62 g/ha) | Plant response rating, Cocklebur ([5]; Rate 62 g/ha) | Plant response rating, Cocklebur ([5]; Rate 125 g/ha) | Plant response rating, Ragweed, Common ([6]; Rate 125 g/ha) | Plant response rating (0 to 100), Ragweed, Common [6, 23] | Plant response rating, Ragweed, Common ([6]; preemergence, Rate 250 g/ha) | Plant response rating, Pigweed ([15]; preemergence, Rate 250 g/ha) | Plant response rating, Soybean ([16]; Rate 125 g/ha) | Plant response rating (0 to 100), Soybean [16, 23] | Plant response rating, Soybean ([16]; preemergence, Rate 250 g/ha) | Plant response rating, Nutsedge ([19]; Rate 62 g/ha) | Plant response rating, Nutsedge ([19]; Rate 125 g/ha)
40: Plant response rating, Nightshade ([1]; Rate 250 g/ha) | Plant response rating (0 to 100), Johnsongrass ([11]; Rate 250 g/ha) | Plant response rating, Barnyardgrass ([20]; Rate 62 g/ha)
20: Plant response rating, Sunflower [2] | Plant response rating (0 to 100), Cocklebur ([5]; Rate 250 g/ha) | Plant response rating (0 to 100), Cocklebur ([5]; Rate 500 g/ha) | Plant response rating, Corn ([7]; Rate 62 g/ha) | Plant response rating, Corn ([7]; Rate 125 g/ha) | Plant response rating (0 to 100), Corn ([7]; Rate 250 g/ha) | Plant response rating (0 to 100), Foxtail, Giant ([9]; Rate 250 g/ha) | Plant response rating, Johnsongrass ([11]; Rate 62 g/ha) | Plant response rating, Velvetleaf ([17]; Rate 125 g/ha) | Plant response rating, Velvetleaf ([17]; preemergence, Rate 250 g/ha) | Plant response rating (0 to 100), Nutsedge [19, 23] | Plant response rating, Nutsedge ([19]; preemergence, Rate 250 g/ha)
10: Plant response rating, Morningglory ([14]; Rate 62 g/ha)
80: Plant response rating (0 to 100), Surinam grass ([3]; Rate 250 g/ha) | Plant response rating (0 to 100), Corn ([7]; Rate 500 g/ha) | Ducksalad plant response rating ([21]; Rate 250 g/ha) | Plant response rating, Ducksalad ([21]; Rate 125 g/ha)
50: Plant response rating, Surinam grass ([3]; Rate 62 g/ha) | Plant response rating (0 to 100), Velvetleaf [17, 23] | Plant response rating, Cupgrass, Woolly ([18]; Rate 62 g/ha)
90: Plant response rating (0 to 100), Foxtail, Giant ([9]; Rate 500 g/ha) | Barnyardgrass plant response rating ([20]; Rate 250 g/ha) | Barnyardgrass plant response rating ([20]; Rate 500 g/ha) | Plant response rating, Barnyardgrass ([20]; Rate 125 g/ha) | Flatsedge plant response rating ([22]; Rate 250 g/ha) | Flatsedge plant response rating ([22]; Rate 500 g/ha) | Plant response rating, Flatsedge ([22]; Rate 62 g/ha) | Plant response rating, Flatsedge ([22]; Rate 125 g/ha)
30: Plant response rating, Nightshade ([1]; Rate 125 g/ha) | Plant response rating, Johnsongrass ([11]; Rate 125 g/ha) | Plant response rating, Morningglory ([14]; Rate 125 g/ha) | Plant response rating (0 to 100), Morningglory [14, 23] | Plant response rating, Morningglory ([14]; preemergence, Rate 250 g/ha) | Plant response rating, Ducksalad ([21]; Rate 62 g/ha)
100: Plant response rating (0 to 100), Surinam grass ([3]; Rate 500 g/ha) | Plant response rating, Bermudagrass ([4]; Rate 62 g/ha) | Plant response rating, Bermudagrass ([4]; Rate 125 g/ha) | Plant response rating (0 to 100 where 0 is no effect and 100 is complete control), Bermudagrass ([4]; Rate 250 g/ha) | Plant response rating (0 to 100 where 0 is no effect and 100 is complete control), Bermudagrass ([4]; Rate 500 g/ha) | Plant response rating, Crabgrass ([8]; Rate 62 g/ha) | Plant response rating, Crabgrass ([8]; Rate 125 g/ha) | Plant response rating (0 to 100), Crabgrass ([8]; Rate 250 g/ha) | Plant response rating (0 to 100), Crabgrass ([8]; Rate 500 g/ha) | Plant response rating, Foxtail, Giant ([9]; Rate 62 g/ha) | Plant response rating, Foxtail, Giant ([9]; Rate 125 g/ha) | Plant response rating, Goosegrass ([10]; Rate 62 g/ha) | Plant response rating, Goosegrass ([10]; Rate 125 g/ha) | Plant response rating (0 to 100), Goosegrass ([10]; Rate 250 g/ha) | Plant response rating (0 to 100), Goosegrass ([10]; Rate 500 g/ha) | Plant response rating (0 to 100), Johnsongrass ([11]; Rate 500 g/ha) | Plant response rating, Kochia ([12]; Rate 62 g/ha) | Plant response rating, Kochia ([12]; Rate 125 g/ha) | Plant response rating (0 to 100), Kochia ([12]; Rate 250 g/ha) | Plant response rating (0 to 100), Kochia ([12]; Rate 500 g/ha) | Plant response rating, Lambsquarters ([13]; Rate 62 g/ha) | Plant response rating, Lambsquarters ([13]; Rate 125 g/ha) | Plant response rating (0 to 100), Lambsquarters [13, 23] | Plant response rating, Lambsquarters ([13]; preemergence, Rate 250 g/ha) | Plant response rating, Pigweed ([15]; Rate 125 g/ha) | Plant response rating (0 to 100), Pigweed [15, 23] | Plant response rating, Cupgrass, Woolly ([18]; Rate 125 g/ha) | Plant response rating (0 to 100), Cupgrass, Woolly ([18]; Rate 250 g/ha) | Plant response rating (0 to 100), Cupgrass, Woolly ([18]; Rate 500 g/ha) | Ducksalad plant response rating ([21]; Rate 500 g/ha)
